Source: PMC9146423, “Discovery of Nitro-azolo[1,5-a]pyrimidines with Anti-Inflammatory and Protective Activity against LPS-Induced Acute Lung Injury” (Pharmaceuticals, 2022)

What was measured:
[1] = tested on: LPS-stimulated peritoneal macrophages of C57bl/6j mice; test: Inhibition of LPS-induced NO synthesis (nitrite accumulation, Griess reagent) in peritoneal macrophages; format: cell-based, mouse; conditions: Mus musculus, Peritoneal macrophage
Description: (§1) Peritoneal macrophages (PM) were isolated from the peritoneal exudate of 30 male C57bl/6j mice. To accumulate PM, 1 mL of 3% peptone solution was injected intraperitoneally. After 3 days, the mice were euthanized by cervical dislocation. Cells of peritoneal exudate were obtained by aseptic washing of the abdominal cavity with 5 mL of sterile Hanks’s solution (+4–6 °C) without calcium and magnesium ions. The total number and viability of cells were assessed in a Goryaev counting chamber (Russia) with a 0.4% trypan blue staining (Sigma-Aldrich, St. Louis, MO, USA). The cell concentration was adjusted to 1.0 × 10^6 cells/mL in DMEM (Gibco) supplemented with 2 mM L-glutamine (Gibco, Waltham, MA, USA), 10% heat-inactivated fetal bovine serum (BioClot, Bavaria, Germany), 100 U/mL penicillin, and […] streptomycin (Gibco) and plated 200 μL/well in 96-well transparent plates (SPL Life Sciences Co., Ltd., Pocheon-si, Korea). After 2 h at 37 °C in a humidified atmosphere with 5% CO2, the wells were washed to remove non-adherent cells. After 24 h of incubation, 20 μL of the supernatants were substituted with 20 μL of solutions of test compounds, followed by E. coli O127:B8 LPS (100 ng/mL final concentration) after 30 min. The experiments were run in 3 independent replicates.
The accumulation of the nitrite anion (a stable end product of NO decomposition produced by iNOS) in supernatants was determined using a standard Griess reagent. Briefly, 50 μL of supernatants were collected 22 h after incubation of PM, and the test and control compounds were mixed with 50 μL of 1% […] in 2.5% H3PO4 and 50 μL of 0.1% N-(1-naphthyl) ethylenediamine in 2.5% H3PO4. After incubation at 23 °C for 10 min in an orbital shaker, the optical density was determined at a wavelength of 550 nm with a microplate reader Infinite M200 PRO (Tecan, Grödig, Austria).

[2] = Cell viability of LPS-stimulated macrophages, MTT test; format: cell-based; conditions: male, C57bl/6j, mouse
Description: as §1
(§2) The activity of lactate dehydrogenase (LDH) in a cell culture medium served as a marker of membrane permeability and cell death. Aliquotes of supernatants were taken after 24 h of inoculation with test compounds, mixed with 250 μL of […] NADH solution in 54 mM phosphate-buffered saline (pH 7.5). Then, 25 μL of a 6.48 mM pyruvate solution was added to the mixture. The optical density was followed at a wavelength of 340 nm for 20 min. The MTT-test was performed 24 h after incubations of cells with tested compounds. Briefly, 20 μL of MTT solution was added to each well, incubated at 37 °C in a humidified atmosphere containing 5% CO2 for 4 h. The culture medium was removed, the cells were lysed, and formazan crystals were dissolved in 150 μL DMSO. The plates were shaken at room temperature for 10 min, and the optical density was measured in a microplate reader Infinite M200 PRO (Tecan, Grödig, Austria) at a wavelength of 565 nm.

[3] = tested on: LPS-stimulated peritoneal macrophages of C57bl/6j mice; test: as above; format: cell-based; conditions: male, C57bl/6j, mouse, 24 h, 100 μM
Description: as §1, §2

[4] = tested on: peritoneal macrophages of C57bl/6j mice; test: Yeast phagocytosis assay and macrophage spreading; format: cell-based, mouse
Description: Next, we evaluated lead compound 9g for immunodepressant activity in parallel with the reference drug dexamethasone. Yeast phagocytosis was assessed by microscopic examination as the number of phagocytes per 100 macrophages and as the number of phagocytosed yeast cells in each phagocyte. Cell viability was assessed as lactate dehydrogenase activity in cell supernatants, which correlates with increased cell membrane permeability.
Peritoneal macrophages of C57bl/6j mice were cultured in a 24-well plate at a volume of 500 μL/well (1 × 10^5 cells/mL) for 24 h. Test compounds or DMSO were added to wells in triplicate followed by 50 μL of 1% yeast suspension, and the plates were incubated for 40 min. After 24 or 72 h, the medium was removed. The cells were fixed with May–Grunwald methanol dye and stained with Azur-Eosin in Romanovsky’s modification for 45 min at room temperature, washed, air-dried, and analyzed using a microscope Mikmed-6 (Russia), equipped with a digital camera. The study was performed in three technical replicates and two series; 100 macrophages were processed in each sample to count the captured yeast cells. Macrophage spreading was assessed as a number of pseudopodia.

Structure (SMILES): Cc1nc2nnnn2c(NCCc2ccc(O)cc2)c1[N+](=O)[O-] [Compound 9g, N-[2-(4-Hydroxyphenyl)ethyl]-5-methyl-6-nitrotetrazolo-[1,5-a]pyrimidin-7-amine]
- inhibition at 100 µM ([1]; 22 h, 100 μM, m ± SD, read-out: Inhibition of NO Synthesis vs. LPS Control): 58.5 ± 5.93%
- IC50 ([1]; LPS-stimulated peritoneal macrophages): 3.72 µM
- CC50 at 24 h [2]: > 100 µM
- Cell Viability vs. LPS Control, MTT Test [3]: 84.65 ± 5.83%
- Suppression of phagocytosis ([4]; after 24-h of incubation, data not shown): not
- Decrease of the mean number of phagocytosed yeast cells ([4]; after 72 h of incubation): 16%
- Macrophage phagocytic activity (in words) ([4]; after 72 h of incubation): preserved macrophage phagocytic activity
- Macrophage spreading ([4]; yeast-stimulated, visually scored): reduced it to a nearly unstimulated level
